Results taken from patent publication US6117840A, “CS-1 peptidomimetics, compositions and methods of using the same” (Cytel Corporation, priority 1997, dated 2000).
Read-outs that look alike come from different tables or passages of the source. Square brackets hold non-standard residues; d marks the D form. Peptide text beside a SMILES is read from it. * marks the point of attachment. PhAc = O=C(Cc1ccccc1)*

What was measured:
VLA-4 = molecular target: T1, VLA-4 (Homo sapiens, UniProt P05556+P13612); assay type: cell-based; details: for RELATIVE POTENCY (inhibition of VLA-4 binding CS-1): relative to standard peptide SEQ ID NO:3 (=1), normalized IC50, about one-tenth or less of SEQ ID NO:3 assigned zero
T1 construct: host or cells: Jurkat (human T lymphoblastic line)
Procedure: Binding inhibition is measured here as a concentration of peptide that inhibits one-half the binding between a standard number of Jurkat cells and a standard amount of CS-1 peptide bound to the surface of a microtiter plate well. Those concentrations are conveniently expressed as IC50 values, smaller numbers indicating a lower concentration required to inhibit 50 percent binding and therefore greater potency. Further specifics of this assay are provided hereinafter.
Jurkat cells (ATCC TIB 152), a human T lymphoblastic line, labeled with ^51 chromium were used to assay in vitro binding inhibition provided by various peptides discussed herein.
The plates were prepared as follows: The 25-mer CS1 peptide (SEQ ID NO:1) dissolved at 0.5-1 μg/ml in a buffer of 0.1M NaHCO3 at pH 9.5 tha also contained 10 μg/ml of bovine serum albumin (BSA) or a conjugate o the CS1 peptide linked to ovalbumin (CS1-OVA) dissolved at 1-2.5 μg/ml in the same buffer was used as the substrate. Each well of the microtiter plates was coated with 50 μl of substrate or buffer alone for controls The wells were permitted to dry out completely and were then rinsed twice with PBS at pH 7.4. Nonspecific binding sites of each well were then blocked using 200 μl per well of RPMI/1 percent BSA for two hours at room temperature. Both solid phaseaffixed substrates provided similar results.
Jurkat cells (3-5×10^6 cells) were placed into a 15 ml Falcon.TM roundbottom tube with a cap. The tube was centrifuged, and the extra medium was then removed.
Two hundred microliters of a ^51 Cr labeling solution were added to th centrifuged cells and maintained in contact with the cells for 90-120 minutes in a warm room. This procedure typically provides about 50,000-100,000 cpm/well with about 80-100 percent cell viability. Longer contact times provide a greater amount of labeling but lower cell viability.
The labeled cells are washed with (i) complete medium, (ii) 1 mM EDTA/PBS and then (iii) RPMI/1 percent BSA free of serum components. The cells are centrifuged after each washing. The cells are finally resuspended in serumfree RPMI/1 percent BSA at a concentration of 1×10^6 viabl cells/ml, which provides a concentration that is diluted by onehalf in th assay.
Inhibitor peptides are prepared as stock solutions at 20 mg/ml in DMSO in 1.5 ml cryogenic screwcap vials, and were stored at -70° C. Using Flow™ roundbottom or Vbottom microtiter plates, the inhibitor peptides were prepared at twice the assay concentration in RPMI/1 percent BSA at 6 μl/well.
Four initial dilutions were typically used.
The ^51 Crlabeled cells (1×10^6 cells at 60 μl/well) were then admixed with the diluted peptide solutions. The admixtures were maintained at room temperature (about 22° C.) for 30 minutes.
One hundred microliters of each inhibitor peptide/cell admixture were transferred to the substratecoated wells. This was done in triplicate for each dilution. The resulting plates were incubated for 30 minutes at 37° C. and then washed gently three times with RPMI/1 percent BSA at 200 μl/well. Binding was observed microscopically, particularly after the second wash.
The bound cells were then lysed by the addition of a 0.5 percent solution of sodium dodecylsulfate in water at 100 μl/well. The resulting solutions were then processed for counting and calculation of IC50 values following usual procedures. Appropriate positive and negative controls were used with each plate so that the results of separate assays could be normalized and compared.

asthmatic sheep = assay: Treatment of asthmatic sheep (Ascaris suum antigen); assay type: in vivo; details: for PC400, carbacol dosage to increase SRL 4-fold, 24 hours after challenge: pre-challenge values about 20-23 BU
Procedure: Six asthmatic sheep were treated in a double blind cross-over study by Dr. William M. Abraham of the Department of Research, Mount Sinai Medical Center, 4300 Alton Road, Miami Beach, Fla. 33140. […] This study was carried out generally as described in Abraham et al., J. Clin. Invest., 93:776-787 (1994).
The inhibitor peptide used here was N--phenylacetyl--Leu--Asp--Phe--D--Pro--NH2, with a control peptide that comprised the previously described peptide having the same residues in a scrambled sequence. The vehicle for the nebulized peptides was phosphate-buffered saline. The peptides were administered at a dose of 1 mg/kg each, twice a day for three days prior to challenge, as well as 0.5 hours prior to and four hours post challenge on day 4. Because this was a crossover study, each animal received one or the other treatment, followed by a rest and then the other treatment. Each animal therefore served as its own control.

T1 sequence (P13612 34-1032): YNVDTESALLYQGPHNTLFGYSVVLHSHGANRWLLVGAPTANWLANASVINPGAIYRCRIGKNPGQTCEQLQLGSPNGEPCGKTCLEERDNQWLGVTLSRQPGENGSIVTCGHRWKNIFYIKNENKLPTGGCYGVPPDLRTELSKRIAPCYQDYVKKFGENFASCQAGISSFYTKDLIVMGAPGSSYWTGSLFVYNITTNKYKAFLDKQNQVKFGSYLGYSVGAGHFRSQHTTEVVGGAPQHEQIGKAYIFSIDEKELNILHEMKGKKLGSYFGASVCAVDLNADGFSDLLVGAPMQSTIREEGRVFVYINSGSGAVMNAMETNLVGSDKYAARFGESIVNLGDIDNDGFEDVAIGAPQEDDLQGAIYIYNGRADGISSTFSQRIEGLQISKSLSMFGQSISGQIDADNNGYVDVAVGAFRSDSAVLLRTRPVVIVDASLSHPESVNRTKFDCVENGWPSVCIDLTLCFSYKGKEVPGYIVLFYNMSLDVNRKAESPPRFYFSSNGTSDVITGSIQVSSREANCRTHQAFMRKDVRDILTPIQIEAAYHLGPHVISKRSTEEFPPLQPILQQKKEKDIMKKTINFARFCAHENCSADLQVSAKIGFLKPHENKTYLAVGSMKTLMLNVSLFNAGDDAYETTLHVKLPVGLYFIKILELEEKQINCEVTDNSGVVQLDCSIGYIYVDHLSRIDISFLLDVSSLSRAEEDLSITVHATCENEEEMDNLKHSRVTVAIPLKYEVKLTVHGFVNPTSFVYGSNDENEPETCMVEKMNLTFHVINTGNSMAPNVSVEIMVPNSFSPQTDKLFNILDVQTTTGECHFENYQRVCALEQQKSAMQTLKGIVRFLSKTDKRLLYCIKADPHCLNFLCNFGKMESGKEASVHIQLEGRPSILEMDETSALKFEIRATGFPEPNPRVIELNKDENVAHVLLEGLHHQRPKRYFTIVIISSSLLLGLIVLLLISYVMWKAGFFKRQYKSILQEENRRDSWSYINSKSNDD
T1 sequence (P05556 21-798): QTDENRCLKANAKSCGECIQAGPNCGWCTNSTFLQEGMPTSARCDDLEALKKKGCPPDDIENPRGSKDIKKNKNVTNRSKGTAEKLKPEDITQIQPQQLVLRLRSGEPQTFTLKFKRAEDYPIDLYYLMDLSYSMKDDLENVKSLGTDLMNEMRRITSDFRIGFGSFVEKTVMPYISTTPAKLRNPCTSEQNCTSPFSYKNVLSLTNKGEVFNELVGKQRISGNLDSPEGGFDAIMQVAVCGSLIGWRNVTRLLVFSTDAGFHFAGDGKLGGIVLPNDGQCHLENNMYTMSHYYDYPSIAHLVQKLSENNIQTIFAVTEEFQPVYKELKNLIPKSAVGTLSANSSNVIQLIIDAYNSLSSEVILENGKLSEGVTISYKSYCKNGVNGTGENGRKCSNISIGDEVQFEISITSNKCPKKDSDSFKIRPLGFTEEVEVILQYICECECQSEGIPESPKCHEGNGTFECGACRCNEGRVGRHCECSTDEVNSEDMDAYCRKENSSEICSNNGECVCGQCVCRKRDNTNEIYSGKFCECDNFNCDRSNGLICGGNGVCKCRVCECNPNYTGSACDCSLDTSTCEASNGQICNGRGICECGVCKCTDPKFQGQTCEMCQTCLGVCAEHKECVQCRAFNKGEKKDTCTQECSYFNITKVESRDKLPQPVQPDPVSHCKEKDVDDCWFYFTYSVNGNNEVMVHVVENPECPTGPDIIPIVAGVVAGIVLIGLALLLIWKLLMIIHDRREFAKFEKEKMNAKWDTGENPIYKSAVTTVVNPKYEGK

| SMILES | binding inhibition (in words) (VLA-4; compared to standard 10-mer / B12) | RELATIVE POTENCY (inhibition of VLA-4 binding CS-1) (VLA-4) | RELATIVE POTENCY (inhibition of VLA-4 binding CS-1) (VLA-4; listed as N--phenylacetyl--Asp--Leu--Phe--D--Pro--NH2) | PC400, carbacol dosage to increase SRL 4-fold, 24 hours after challenge (asthmatic sheep) | VLA-4 binding inhibition, times better than the standard 10-mer peptide of SEQ ID NO:3 (VLA-4) | change in specific lung resistance (SRL) after challenge (FIG. 7) (asthmatic sheep; 1 mg/kg nebulized twice a day, versus control peptide) |
| --- | --- | --- | --- | --- | --- | --- |
| CC(C)C[C@H](NC(=O)[C@H](CC(=O)O)NC(=O)Cc1ccccc1)C(=O)N[C@@H](Cc1ccccc1)C(=O)N1CCC[C@@H]1C(N)=O [X L D F p phenylacetyl amide scrambled, N--phenylacetyl--Asp--Leu--Phe--D--Pro--NH2, reference compound] (PhAc-DLF[dP]-NH2) | no inhibition of VLA-4 | 0 | < 1 | about 12 BU | – | – |
| CC(C)C[C@H](NC(=O)Cc1ccccc1)C(=O)N[C@@H](CC(=O)O)C(=O)N[C@@H](Cc1ccccc1)C(=O)N1CCC[C@@H]1C(N)=O [X L D F p phenylacetyl amide, N--phenylacetyl--Leu--Asp--Phe--D--Pro--NH2] (PhAc-LDF[dP]-NH2) | – | 313 | – | about 27 BU | about 312 times | less of a change from baseline specific lung resistance |
